Legend:
rat SGLT2 = molecular target: T1, rat SGLT2 (Rattus norvegicus, UniProt P53792); assay: Inhibition of radiolabeled α-MG uptake into COS-7 cells transfected with rat SGLT2 (Dixon plot); format: cell-based; details: α-MG 0.3 and 1 mM
T1 construct: expressed in transfected cells; host or cells: COS-7
T1 sequence (P53792 1-670): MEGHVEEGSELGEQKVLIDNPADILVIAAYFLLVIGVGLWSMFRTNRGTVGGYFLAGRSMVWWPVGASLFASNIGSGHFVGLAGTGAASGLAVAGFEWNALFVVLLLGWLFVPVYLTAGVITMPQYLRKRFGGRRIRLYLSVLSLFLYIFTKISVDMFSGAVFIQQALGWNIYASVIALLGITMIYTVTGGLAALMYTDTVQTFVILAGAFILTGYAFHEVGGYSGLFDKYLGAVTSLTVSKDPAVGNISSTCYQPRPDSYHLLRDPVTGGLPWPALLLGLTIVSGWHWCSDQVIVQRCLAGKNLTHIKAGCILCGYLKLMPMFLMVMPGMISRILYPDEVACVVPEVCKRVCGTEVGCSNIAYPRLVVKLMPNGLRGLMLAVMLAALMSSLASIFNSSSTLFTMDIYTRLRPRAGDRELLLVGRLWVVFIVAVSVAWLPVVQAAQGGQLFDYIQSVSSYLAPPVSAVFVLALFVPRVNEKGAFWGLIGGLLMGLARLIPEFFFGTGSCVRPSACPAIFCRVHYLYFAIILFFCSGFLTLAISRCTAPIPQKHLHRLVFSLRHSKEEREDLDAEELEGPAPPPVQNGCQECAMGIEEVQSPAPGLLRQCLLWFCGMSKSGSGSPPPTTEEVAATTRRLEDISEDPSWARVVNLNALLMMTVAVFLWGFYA
Description: Selective inhibition study. Inhibition constants (Ki) of mizagliflozin for rat and human SGLT1 and SGLT2 were determined measuring concentration-dependent effects of test compound on uptake of radiolabeled methyl-α-D-glucopyranoside (α-MG) into COS-7 cells transiently transfected with cloned SGLT1 or SGLT2. Mizagliflozin was assessed at concentrations from 1 to 30 μM and 3 to 100 μM for human and rat SGLT2, respectively. It was assessed at concentrations from 30 nM to 1 μM and 10 to 30 nM for human and rat SGLT1, respectively. α-MG test concentrations were 0.3 and 1 mM. Data were analyzed and Ki determined using Dixon plots of initial transport rates. […] Inhibition constants were also determined for human SGLT1 and SGLT2.

[1] = system: healthy adult male volunteers; assay: Single dose study in humans, pharmacodynamic parameters after breakfast; format: in vivo, human
Description: Single dose study in humans. A single oral dose of 2 mg, 5 mg, 10 mg, 20 mg, 40 mg, 80 mg, and 160 mg of mizagliflozin were administered to healthy adult male volunteers by a placebo-controlled, randomized, double-blind method. The single dose was administered orally immediately before breakfast with approximately 200 mL of water after fasting for at least 10 hours. Pharmacodynamic effect parameters (blood glucose level, insulin, GLP-1, and gastric inhibitory polypeptide (GIP)) were measured. Concentrations at each time point were measured, and summary statistics and coefficient variation (CV) were calculated for AUC0-t; t was up to 6 hours postdose. The time points were: before administration and 0.5, 1, 1.5, 2, 3, 4, 5, and 6 hours after administration. Blood glucose level and insulin were measured to evaluate in an exploratory manner the inhibitory effect on postprandial hyperglycemia. GLP-1 and GIP were measured to evaluate in an exploratory manner the incretin secretory action.

[2] = single oral dose 2 mg before breakfast
[3] = single oral dose 5 mg before breakfast
[4] = single oral dose 10 mg before breakfast
[5] = single oral dose 20 mg before breakfast
[6] = single oral dose 40 mg before breakfast
[7] = single oral dose 80 mg before breakfast
[8] = single oral dose 160 mg before breakfast

Cc1cc(OCCCNCC(C)(C)C(N)=O)ccc1Cc1c(O[C@@H]2O[C@H](CO)[C@@H](O)[C@H](O)[C@H]2O)n[nH]c1C(C)C [mizagliflozin, 3-(3-{4-[3-(β-D-glucopyranosyloxy)-5-isopropyl-1H-pyrazol-4-ylmethyl-]-3-methylphenoxy}propylamino)-2,2-dimethylpropionamide]
Ki (rat SGLT2): 14 µM
AUC 0-6 GIP [1, 2]: 818.5 pg·h/mL
AUC 0-6 GLP-1 (active) [1, 2]: 23.7 pmol·h/L
AUC 0-6 Insulin [1, 2]: 123.2 uU*h/ml
AUC 0-6 glucose [1, 2]: 628.3 mg·h/dL
GIP (peak) [1, 2]: 183.6 pg/mL
GLP-1 (active) (peak) [1, 2]: 6.4 pmol/L
Glucose (peak) [1, 2]: 128.7 mg/dL
Insulin (peak) [1, 2]: 40.38 uU/ml
Time (h) to peak, GIP [1, 2]: 4 h
Time (h) to peak, GLP-1 (active) [1, 2]: 0.5 h
Time (h) to peak, glucose [1, 2]: 1.5 h
Time (h) to peak, insulin [1, 2]: 1.5 h
AUC 0-6 GIP [1, 3]: 856.9 pg·h/mL
AUC 0-6 GLP-1 (active) [1, 3]: 28.5 pmol·h/L
AUC 0-6 Insulin [1, 3]: 140.7 uU*h/ml
AUC 0-6 glucose [1, 3]: 631.3 mg·h/dL
GIP (peak) [1, 3]: 194.5 pg/mL
GLP-1 (active) (peak) [1, 3]: 6.1 pmol/L
Glucose (peak) [1, 3]: 130.3 mg/dL
Insulin (peak) [1, 3]: 47.1 uU/ml
Time (h) to peak, GIP [1, 3]: 3 h
Time (h) to peak, GLP-1 (active) [1, 3]: 0.5 h
Time (h) to peak, glucose [1, 3]: 1 h
Time (h) to peak, insulin [1, 3]: 1.5 h
AUC 0-6 GIP [1, 4]: 945.7 pg·h/mL
AUC 0-6 GLP-1 (active) [1, 4]: 41.5 pmol·h/L
AUC 0-6 Insulin [1, 4]: 120.4 uU*h/ml
AUC 0-6 glucose [1, 4]: 661.9 mg·h/dL
GIP (peak) [1, 4]: 252.3 pg/mL
GLP-1 (active) (peak) [1, 4]: 8.7 pmol/L
Glucose (peak) [1, 4]: 143.8 mg/dL
Insulin (peak) [1, 4]: 39 uU/ml
Time (h) to peak, GIP [1, 4]: 4 h
Time (h) to peak, GLP-1 (active) [1, 4]: 0.5 h
Time (h) to peak, glucose [1, 4]: 1.5 h
Time (h) to peak, insulin [1, 4]: 2 h
AUC 0-6 GIP [1, 5]: 783.9 pg·h/mL
AUC 0-6 GLP-1 (active) [1, 5]: 55.8 pmol·h/L
AUC 0-6 Insulin [1, 5]: 89.7 uU*h/ml
AUC 0-6 glucose [1, 5]: 612.9 mg·h/dL
GIP (peak) [1, 5]: 216.7 pg/mL
GLP-1 (active) (peak) [1, 5]: 11.6 pmol/L
Glucose (peak) [1, 5]: 113.7 mg/dL
Insulin (peak) [1, 5]: 25.9 uU/ml
Time (h) to peak, GIP [1, 5]: 4 h
Time (h) to peak, GLP-1 (active) [1, 5]: 1.5 h
Time (h) to peak, glucose [1, 5]: 2 h
Time (h) to peak, insulin [1, 5]: 3 h
AUC 0-6 GIP [1, 6]: 591.4 pg·h/mL
AUC 0-6 GLP-1 (active) [1, 6]: 32.6 pmol·h/L
AUC 0-6 Insulin [1, 6]: 99.7 uU*h/ml
AUC 0-6 glucose [1, 6]: 629.1 mg·h/dL
GIP (peak) [1, 6]: 166.7 pg/mL
GLP-1 (active) (peak) [1, 6]: 7.5 pmol/L
Glucose (peak) [1, 6]: 130.3 mg/dL
Insulin (peak) [1, 6]: 33.8 uU/ml
Time (h) to peak, GIP [1, 6]: 4 h
Time (h) to peak, GLP-1 (active) [1, 6]: 0.5 h
Time (h) to peak, glucose [1, 6]: 1.5 h
Time (h) to peak, insulin [1, 6]: 1.5 h
AUC 0-6 GIP [1, 7]: 621.5 pg·h/mL
AUC 0-6 GLP-1 (active) [1, 7]: 24.1 pmol·h/L
AUC 0-6 Insulin [1, 7]: 70.9 uU*h/ml
AUC 0-6 glucose [1, 7]: 611.92 mg·h/dL
GIP (peak) [1, 7]: 161.6 pg/mL
GLP-1 (active) (peak) [1, 7]: 5.5 pmol/L
Glucose (peak) [1, 7]: 116 mg/dL
Insulin (peak) [1, 7]: 20.5 uU/ml
Time (h) to peak, GIP [1, 7]: 5 h
Time (h) to peak, GLP-1 (active) [1, 7]: 2 h
Time (h) to peak, glucose [1, 7]: 3 h
Time (h) to peak, insulin [1, 7]: 3 h
AUC 0-6 GIP [1, 8]: 445.5 pg·h/mL
AUC 0-6 GLP-1 (active) [1, 8]: 39.5 pmol·h/L
AUC 0-6 Insulin [1, 8]: 62.7 uU*h/ml
AUC 0-6 glucose [1, 8]: 606.2 mg·h/dL
GIP (peak) [1, 8]: 117.9 pg/mL
GLP-1 (active) (peak) [1, 8]: 7.9 pmol/L
Glucose (peak) [1, 8]: 106.5 mg/dL
Insulin (peak) [1, 8]: 16.2 uU/ml
Time (h) to peak, GIP [1, 8]: 5 h
Time (h) to peak, GLP-1 (active) [1, 8]: 2 h
Time (h) to peak, glucose [1, 8]: 3 h
Time (h) to peak, insulin [1, 8]: 3 h

From patent publication US11596644B2, “Method for treating post-prandial hypoglycemia” (AVOLYNT, priority 2018, dated 2023)
